According to patent US20070275382A1, “Biomarkers for the Efficacy of Somatostatin Analogue Treatment” (priority 2003, published 2007):
*1 amine or outer side, *2 acyl side, *3 side chain or, on linkers, in order; H or OH if unused. Where a SMILES comes first, the peptide text is derived from it. Side-chain parts run from the residue outwards. [ ]: non-standard residue; d: D form. The star is where a group is joined. Ethylenediamine = C(CN[*:2])N[*:1]; Hyp = O=C(O)[CH]1C[CH](O)CN1; Phg = N[CH](C(=O)O)c1ccccc1; CO = O=C([*:1])[*:2]; Bn = c1ccc(C*)cc1

System: Thyroid
Test: Microarray gene expression profiling (HG-U95A), thyroid
Type: in vivo, cynomolgus monkeys
Protocol: Origin of tissue and processing. Male and female cynomolgus monkeys received subcutaneously pasireotide (100 μg/animal/day) or the vehicle for 14 days. On day 15, all animals were sacrificed and tissues for RNA extraction were immediately snap-frozen and kept at −80° C. until processing.
RNA expression profiling was conducted by means of the HG-U95A gene expression probe array (Affymetrix; Santa Clara, Calif. USA), containing more than 12,600 probe sets interrogating primarily full-length human genes and also some control probe sets. The experiment was conducted according to the recommendations of the manufacturer. Briefly, total RNA was obtained by acid guanidinium thiocyanate-phenol-chloroform extraction (Trizol®, Invitrogen Life Technologies, San Diego, Calif. USA) from each frozen tissue section. The total RNA was then purified on an affinity resin (Rneasy®, Qiagen) and quantified. Double stranded cDNA was synthesized with a starting amount of approximately 5 μg full-length total RNA using the Superscript® Choice System (Invitrogen Life Technologies, Carlsbad, Calif. USA) in the presence of a T7-(dT)24 DNA oligonucleotide primer. Following synthesis, the cDNA was purified by phenol/chloroform/isoamyl alcohol extraction and ethanol precipitation. The purified cDNA was then transcribed in vitro using the BioArray® High Yield RNA Transcript Labeling Kit (ENZO, Farmingdale, N.Y. USA) in the presence of biotinylated ribonucleotides form biotin labelled cRNA. The labelled cRNA was then purified on an affinity resin (Rneasy®, Qiagen), quantified and fragmented. An amount of approximately 10 μg labelled cRNA was hybridized for 16 hours at 45° C. to an expression probe array. The array was then washed and stained twice with streptavidin-phycoerythrin (Molecular Probes,) using the GeneChip® Fluidics Workstation 400 (Affymetrix, Santa Clara, Calif. USA). The array was then scanned twice using a confocal laser scanner (GeneArray® Scanner, Agilent, Palo Alto, Calif. USA) resulting in one scanned image. This resulting “.dat-file” was processed using the MAS4 program (Affymetrix) into a “.cel-file”. The “.cel file” was captured and loaded into the Affymetrix GeneChip® Laboratory Information Management System (LIMS). The LIMS database is connected to a UNIX Sun Solaris server through a network filing system that allows for the average intensities for all probes cells (CEL file) to be downloaded into an Oracle database (NPGN). Raw data was converted to expression levels using a “target intensity” of 150. The data were evaluated for quality control and loaded in the GeneSpring® software 4.2.4 (Silicon Genetics, Calif. USA) for analysis.
On the human Affymetrix HGU95Av2 chip, probe sets for individual genes contain 20 oligonucleotide pairs, each composed of a “perfect match” 25-mer and a “mismatch” 25-mer differing from the “perfect” match oligonucleotide at a single base. After probe labelling, hybridization, and laser scanning, the expression level was estimated by averaging the differences in signal intensity measured by oligonucleotide pairs of a given probe (AvgDiff value). The fold changes and directions were calculated for selected genes, from the differences of the AvgDiff values between controls and treated.
To identify genes that were impacted by pasireotide, the dataset was initially filtered to exclude in a first wave of analysis, genes whose values were systematically in the lower expression ranges where the experimental noise is high (at least 80 in a number of experiments corresponding to the smallest number of replicas of any experimental point). In a second round of selection a threshold p-value of 0.05 (based on a t-test) identified differences between treated and control based on a two component error model (Global Error Model) and, whenever possible, with a stepdown correction for multi-hypothesis testing (Benjamini and Hochberg false discovery rate). […]

[1] = ↑ increase, treated vs controls
[2] = ↓ decrease, treated vs controls

## NCCCCC1NC(=O)C(Cc2c[nH]c3ccccc23)NC(=O)C(c2ccccc2)NC(=O)C2CC(OC(=O)NCCN)CN2C(=O)C(Cc2ccccc2)NC(=O)C(Cc2ccc(OCc3ccccc3)cc2)NC1=O (stereo not drawn) [Pasireotide, cyclo[4-(NH2—C2H4—NH—CO—O)Pro-Phg-DTrp-Lys-Tyr(4-Bzl)-Phe]] (cyclo(F[Hyp]([CO-Ethylenediamine])[Phg]WKY(Bn)); configuration not given here)
0.1 mg/animal/14day
  IGF-1 expression level, AvgDiff (range): 58 (20 to 114)
Direction only, treated vs controls
  Endothelial differentiation-related factor 1 RNA expression change: related factor 1 ↑
[1]
  CD2 antigen (cytoplasmic tail)-binding protein 2 RNA expression fold change: ↑ x3.5
  Cadherin 13, H-cadherin (heart) RNA expression fold change: ↑ x2
  Cannabinoid receptor 2 (macrophage) RNA expression fold change: ↑ x3
  GABA (B) receptor 1, isoform a precursor RNA expression fold change: ↑ x2.5
  IFNα-inducible protein 27 RNA expression fold change: protein 27 ↑ x3
  IFNγ-inducible protein 30 RNA expression fold change: ↑ x3.5
  PDGF-associated Protein RNA expression fold change: Protein ↑ x2
  PDGFR β RNA expression fold change: ↑ x2
  Phosphatidyl ethanolamine N-methyl-transferase RNA expression fold change: ↑ x2
  Pro-platelet basic protein (includes platelet basic protein, β-thromboglobulin, connective tissue-activating peptide III, neu) 2 RNA expression fold change: 2 ↑ x3.5
  RANTES RNA expression fold change: ↑ x10.5
  Solute carrier family 21 (PG transporter), member 2 RNA expression fold change: member 2 ↑ x2
  TNF (ligand) superfamily, member 10 RNA expression fold change: ↑ x2
  Thrombospondin 2 RNA expression fold change: spondin 2 ↑ x2
  VWF precursor RNA expression fold change: precursor ↑ x2
[2]
  ATPase, Ca++ transporting, cardiac muscle, fast twitch 1 RNA expression fold change: ↓ x4.5
  Adenylate cyclase activating polypeptide precursor RNA expression fold change: ↓ x1.5
  Adrenergic, α-2C-, receptor RNA expression fold change: ↓ x2.5
  Bcl-2 binding component 3 RNA expression fold change: ↓ x2
  Brain cannabinoid receptor 1 RNA expression fold change: ↓ x2
  CD2 antigen (p50), sheep red blood cell receptor RNA expression fold change: ↓ x7.5
  COL1A1 and PDGFB fusion transcript RNA expression fold change: transcript ↓ x6
  Calcium/calmodulin dependent protein kinase 1 RNA expression fold change: ↓ x2
  Calcium/calmodulin-dependent PK IV RNA expression fold change: IV ↓ x7.5
  Calmodulin-dependent PK IV (CaM-kinase IV) RNA expression fold change: IV) ↓ x7.5
  Cdc-like 5 (cholinesterase-related cell division controller) RNA expression fold change: ↓ x2
  Cdk 5, regulatory subunit 1 (p35) RNA expression fold change: ↓ x5
  Chemokine (C-X-C motif), receptor 4 (fusin) RNA expression fold change: (fusin) ↓ x3
  Cholecystokinin B receptor RNA expression fold change: B receptor ↓ x3
  Cyclin B2 RNA expression fold change: ↓ x2.5
  DAG 1 kinase, α (80 kD) RNA expression fold change: ↓ x4
  EGF-like module containing, mucin-like, hormone receptor-like sequence 1 RNA expression fold change: ↓ x5
  FKBP-associated protein RNA expression fold change: protein ↓ x2.5
  Flt3 ligand RNA expression fold change: Flt3 ligand ↓ x4.5
  Fms-related tyrosine kinase 1(VEGF/vascular permeability factor receptor) RNA expression fold change: ↓ x2
  GABA (A) receptor, γ2 precursor RNA expression fold change: ↓ x1.5
  Gastric inhibitory polypeptide 1 receptor RNA expression fold change: receptor ↓ x2
  Glutamate receptor, metabotropic 2 precursor RNA expression fold change: precursor ↓ 3.5
  Growth arrest-specific 1 RNA expression fold change: ↓ x2.5
  IFNγ responsive transcript RNA expression fold change: transcript ↓ x1.5
  IGF-1 RNA expression fold change: IGF-1 ↓ x1.5
  IL2-inducible T-cell kinase RNA expression fold change: cell kinase ↓ x12
  IL9 receptor RNA expression fold change: ↓ x2
  IP3 receptor type 3 RNA expression fold change: ↓ x1.5
  K+ voltage-gated channel, shaker-related subfamily, member 3 RNA expression fold change: ↓ x4.5
  LTB4 receptor (chemokine receptor-like 1) RNA expression fold change: ↓ x1.5
  Lymphocyte specific protein tyrosine kinase RNA expression fold change: ↓ x4
  P56lck RNA expression fold change: P56lck ↓ x18
  PDGFR α RNA expression fold change: ↓ x3
  PIP 5-phosphatase type IV RNA expression fold change: x3
  PLC, γ 1 (formerly subtype 148) RNA expression fold change: 148) ↓ x2
  RAG1 RNA expression fold change: RAG1 ↓ x18
  RAG2 RNA expression fold change: RAG2 ↓ x5
  SH2 domain protein 1A, Duncan's disease (lymphoproliferative syndrome) RNA expression fold change: ↓ x7.5
  Signalling lymphocytic activation molecule RNA expression fold change: molecule ↓ x4.5
  TCR ζ chain precursor RNA expression fold change: precursor ↓ x5.5
  TSHR RNA expression fold change: TSHR ↓ x2
  Transcription factor 7 (T-cell specific, HMG-box) RNA expression fold change: box) ↓ x16.5
  c-AMP responsive element binding protein 1 RNA expression fold change: protein 1 ↓ x2
